This note sets out measurements from US20040067531A1, “Methods of modulating protein tyrosine kinase function with substituted indolinone compounds” (SUGEN, INC., priority 1997, published 2004).

Data set [1] relates to HUV-EC-C cells; aFGF (ECGF). The experiment in a line: HUVEC-aFGF 3H-thymidine incorporation assay. Conditions: Homo sapiens. In kind it is cell-based, human. For orientation: Uptake of a labelled nucleoside into DNA is a usual measure of proliferation.
Method: The following protocol is used to measure a compound's activity against VEGF and aFGF, all of which are expressed by HUVEC cells.
Repeat the wash two more times with D-PBS, resuspend the cells in about 1 mL assay medium/15 cm^2 of tissue culture flask.
Add cells to 96-well flat-bottom plates at 100 μL/well or 0.8-1.0×10^4 cells/well; incubate ˜24h at 37° C., 5% CO^2.
Use the same assay medium as mentioned in day 0, step 2 above. Titrations are made by adding 90 μL/well of drug at 200 μM (4× the final well concentration) to the top well of a particular plate column. Since the stock drug concentration is usually 20 mM in DMSO, the 200 μM drug concentration contains 2% DMSO.
Therefore, diluent made up to 2% DMSO in assay medium (F12K+0.5% fetal bovine serum) is used as diluent for the drug titrations in order to dilute the drug but keep the DMSO concentration constant. Add this diluent to the remaining wells in the column at 60 μL/well. Take 60 μL from the 120 μL of 200 μM drug dilution in the top well of the column and mix with the 60 μL in the second well of the column. Take 60 μL from this well and mix with the 60 μL in the third well of the column, and so on until two-fold titrations are completed. When the next-to-the-last well is mixed, take 60 μL of the 120 μL in this well and discard it. Leave the last well with 60 μL of DMSO/media diluent as a non-drug-containing control. Make 9 columns of titrated drug, enough for triplicate wells each for 1) VEGF (obtained from Pepro Tech Inc., catalogue no. […] ECGF comes as a preparation with sodium heparin.
Transfer 50 μL/well of the drug dilutions to the 96-well assay plates containing the 0.8-1.0×10^4 cells/100 μL/well of the HUV-EC-C cells from day 0. and incubate ˜2 h at 37° C., 5% CO2.
In triplicate, add 50 μL/well of 80 μg/mL VEGF, 20 ng/mL ECGF, or media control to each drug condition. As with the drugs, the growth factor concentrations are 4× the desired final concentration. Use the assay media from day 0 step 2 to make the concentrations of growth factors.
Freeze plates overnight at 20° C.
The target of data set [2] is T1, FLK-1 receptor (Mus musculus, UniProt P35918).
T1 construct: expressed in transfected cells; host or cells: NIH3T3 C7#3
The experiment in a line: ELISA assay measuring the kinase activity of the FLK-1 receptor in cells engineered to express FLK-1. The following applies: NIH3T3 C7#3 FLK-1 expressing cells, VEGF stimulation, phosphotyrosine ELISA. In kind it is cell-based. As to the method: An ELISA assay was conducted to measure the kinase activity of the FLK-1 receptor and more specifically, the inhibition or activation of TK activity on the FLK-1 receptor. Specifically, the following assay was conducted to measure kinase activity of the FLK-1 receptor in cells genetically engineered to express FLK-1.
(11) NIH3T3 C7#3 Cells (FLK-1 expressing cells);
The following protocol was used for conducting the assay:
1. Coat Corning 96-well elisa plates with 1.0 μg per well Cappel Anti-rabbit IgG antibody in 0.1 M Na2CO3 pH 9.6. Bring final volume to 150 μL per well. Coat plates overnight at 4° C. Plates can be kept up to two weeks when stored at 4° C.
2. Grow cells in Growth media (DMEM, supplemental with 2.0 mM L-Glutamine, 10% FBS) in suitable culture dishes until confluent at 37° C., 5% CO2.
3. Harvest cells by trypsinization and seed in Corning 25850 polystyrene 96-well roundbottom cell plates, 25.000 cells/well in 200 μL of growth media.
4. Grow cells at least one day at 37° C., 5% CO2.
5. Wash cells-with D-PBS 1×.
6. Add 200 μL/well of starvation media (DMEM, 2.0 mM 1-Glutamine, 0.1% FBS). Incubate overnight at 37° C., 5% CO2.
7. Dilute Compounds 1:20 in polypropylene 96 well plates using starvation media. Dilute dimethylsulfoxide 1:20 for use in control wells.
8. Remove starvation media from 96 well cell culture plates and add 162 μL of fresh starvation media to each well.
9. Add 18 μL of 1:20 diluted Compound dilution (from step 7) to each well plus the 1:20 dimethylsulfoxide dilution to the control wells (+/− VEGF), for a final dilution of 1:200 after cell stimulation. Final dimethylsulfoxide is 0.5%. Incubate the plate at 37° C., 5% CO2 for two hours.
10. Remove unbound antibody from ELISA plates by inverting plate to remove liquid. Wash 3 times with TBSW+0.5% ethanolamine, pH 7.0. Pat the plate on a paper towel to remove excess liquid and bubbles.
11. Block plates with TBSW+0.5% Ethanolamine, pH 7.0, 150 μL per well. Incubate plate thirty minutes while shaking on a microliter plate shaker.
12. Wash plate 3 times as described in step 10.
13. […] Bring final volume to 150 μL/well with TBSW+0.5% ethanolamine pH 7.0. Incubate plate for thirty minutes while shaking.
14. Add 180 μL starvation medium to the cells and stimulate cells with 20 μL/well 10.0 mM sodium ortho vanadate and 500 ng/mL VEGF (resulting in a final concentration of 1.0 mM sodium ortho vanadate and 50 ng/mL VEGF per well) for eight minutes at 37° C., 5% CO2. Negative control wells receive only starvation medium.
15. After eight minutes, media should be removed from the cells and washed one time with 200 μL/well PBS.
16. Lyse cells in 150 μL/well HNTG while shaking at room temperature for five minutes. HNTG formulation includes sodium ortho vanadate, sodium pyro phosphate and EDTA.
17. Wash ELISA plate three times as described in step 10.
18. Transfer cell lysates from the cell plate to ELISA plate and incubate while shaking for two hours. To transfer cell lysate pipette up and down while scrapping the wells.
19. Wash plate three times as described in step 10.
20. Incubate ELISA plate with 0.02 μg/well UB40 in TBSW+05% ethanolamine. Bring final volume to 150 μL/well. Incubate while shaking for 30 minutes.
21. Wash plate three times as described in step 10.
22. Incubate ELISA plate with 1:10,000 diluted EIA grade goat anti-mouse IgG conjugated horseradish peroxidase in TBSW+0.5% ethanolamine, pH 7.0. Bring final volume to 150 μL/well. Incubate while shaking for thirty minutes.
23. Wash plate as described in step 10.
24. Add 100 μL of ABTS/H2O2 solution to well. Incubate ten minutes while shaking.
25. Add 100 μL of 0.2 M HCl for 0.1 M HCl final to stop the color development reaction. Shake 1 minute at room temperature. Remove bubbles with slow stream of air and read the ELISA plate in an ELISA plate reader at 410 nm.
(§1) The IC50 values were measured for several of the compounds of the invention.

For data set [3], the target named is T2, EGFR protein (Homo sapiens, UniProt P00533).
T2 construct: A431 cell lysate; endogenous in cells; host or cells: A431
Kind of data set: ELISA assay measuring the kinase activity of the EGF receptor (EGFR captured from A431 cell lysate). The class given is biochemical. The procedure:
The following protocol describes the reagents and procedures used to analyze protein tyrosine kinase activity on the EGFR protein.
All of the following steps are conducted at room temperature unless it is specifically indicated. All ELISA plate washing is by rinsing 4× with TBST.
1. Coat Corning 96 well ELISA plates with 0.5 μg/well of SUMO1 in a volume of 100 μL PBS. Store overnight at 4° C.
2. Remove unbound SUMO1 by inverting plate to remove liquid. Wash plates with distilled water. Pat plate on a paper towel to remove excess liquid and bubbles
3. Add 150 μL of Blocking Buffer to each well. Incubate while shaking on a microliter plate shaker at room temperature for 30 min.
4. Wash 3× with deionized water, then once with TBST. Pat plate on a paper towel to remove excess liquid and bubbles.
5. Dilute lysate in PBS (7 μg of lysate/100 μL of PBS).
6. Add 100 μL of diluted lysate to each well. Shake at room temperature for 60 min.
7. Wash as described in step 4.
8. Add 120 μL TBS to ELISA plate containing captured EGFR.
9. Dilute drugs/extracts 1:10 (unless specified otherwise) in TBS in 96-well polypropylene plates.
10. Add 13.5 μL diluted drugs/extracts to ELISA plate.
11. Incubate for 30 minutes while shaking at room temperture.
12. […] Incubate while shaking on a micro-liter plate shaker at room temperature for 5 min.
13. Stop Kinase reaction with the addition of 16.5 μL of 200 mM EDTA pH 8.0 to all wells.
14. Wash 4× with deionized water and twice with TBST.
15. Add 100 μL per well of anti-phosphotyrosine (1:3000 dilution in TBST). Incubate while shaking on a micro-liter plate shaker 30-45 minutes at room temperature while shaking.
16. Wash as described in step 4.
17. Add 100 μL per well of biosource Goat anti-rabbit IgG peroxidase conjugate (1:2000 dilution in TBST). Incubate 30 min. at room temerature while shaking.
18. Wash as described in step 4.
19. Add 100 μL of ABTS/H2O2 solution to each well.
20. Incubate 5 to 15 minutes while shaking. Remove any bubbles.
21. If necessary stop reaction with the addition of 10 μL of 0.2 M HCl/well.
22. Read assay on Dynatech MR7000 ELISA Plate Reader.
as §1

T1 sequence (P35918 20-1345): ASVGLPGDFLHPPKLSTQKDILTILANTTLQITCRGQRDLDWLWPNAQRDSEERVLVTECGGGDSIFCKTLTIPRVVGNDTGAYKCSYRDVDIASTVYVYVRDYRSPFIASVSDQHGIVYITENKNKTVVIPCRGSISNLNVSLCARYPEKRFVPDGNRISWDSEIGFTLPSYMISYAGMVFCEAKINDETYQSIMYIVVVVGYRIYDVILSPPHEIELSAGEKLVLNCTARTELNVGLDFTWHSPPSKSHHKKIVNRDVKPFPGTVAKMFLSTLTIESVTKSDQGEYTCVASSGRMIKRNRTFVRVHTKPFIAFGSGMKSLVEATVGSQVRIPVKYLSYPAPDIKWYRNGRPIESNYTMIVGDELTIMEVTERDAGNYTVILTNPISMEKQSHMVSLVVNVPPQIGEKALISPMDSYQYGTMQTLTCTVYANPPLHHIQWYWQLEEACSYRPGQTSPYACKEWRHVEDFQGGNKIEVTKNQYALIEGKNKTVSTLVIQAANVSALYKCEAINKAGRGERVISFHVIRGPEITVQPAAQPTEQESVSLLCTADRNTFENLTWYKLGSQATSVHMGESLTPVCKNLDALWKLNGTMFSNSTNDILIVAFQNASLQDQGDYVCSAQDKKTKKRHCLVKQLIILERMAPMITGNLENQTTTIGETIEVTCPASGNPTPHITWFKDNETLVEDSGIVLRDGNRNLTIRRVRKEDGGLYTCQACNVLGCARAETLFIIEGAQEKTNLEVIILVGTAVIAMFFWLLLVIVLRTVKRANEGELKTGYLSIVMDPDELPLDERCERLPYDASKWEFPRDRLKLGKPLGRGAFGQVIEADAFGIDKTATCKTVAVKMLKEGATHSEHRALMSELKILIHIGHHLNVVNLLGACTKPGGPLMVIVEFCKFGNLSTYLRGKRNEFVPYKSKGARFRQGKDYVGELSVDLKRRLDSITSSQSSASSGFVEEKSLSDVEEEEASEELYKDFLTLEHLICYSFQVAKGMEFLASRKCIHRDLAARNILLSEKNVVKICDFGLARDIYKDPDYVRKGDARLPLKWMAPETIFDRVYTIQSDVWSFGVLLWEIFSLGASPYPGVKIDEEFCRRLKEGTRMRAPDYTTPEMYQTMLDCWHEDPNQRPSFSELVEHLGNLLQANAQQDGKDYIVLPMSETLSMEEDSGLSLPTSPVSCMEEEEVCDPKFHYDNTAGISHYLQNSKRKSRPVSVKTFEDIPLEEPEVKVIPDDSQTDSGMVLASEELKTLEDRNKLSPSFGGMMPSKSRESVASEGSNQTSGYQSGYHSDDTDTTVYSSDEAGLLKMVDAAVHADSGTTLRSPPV
T2 sequence (P00533 25-1210): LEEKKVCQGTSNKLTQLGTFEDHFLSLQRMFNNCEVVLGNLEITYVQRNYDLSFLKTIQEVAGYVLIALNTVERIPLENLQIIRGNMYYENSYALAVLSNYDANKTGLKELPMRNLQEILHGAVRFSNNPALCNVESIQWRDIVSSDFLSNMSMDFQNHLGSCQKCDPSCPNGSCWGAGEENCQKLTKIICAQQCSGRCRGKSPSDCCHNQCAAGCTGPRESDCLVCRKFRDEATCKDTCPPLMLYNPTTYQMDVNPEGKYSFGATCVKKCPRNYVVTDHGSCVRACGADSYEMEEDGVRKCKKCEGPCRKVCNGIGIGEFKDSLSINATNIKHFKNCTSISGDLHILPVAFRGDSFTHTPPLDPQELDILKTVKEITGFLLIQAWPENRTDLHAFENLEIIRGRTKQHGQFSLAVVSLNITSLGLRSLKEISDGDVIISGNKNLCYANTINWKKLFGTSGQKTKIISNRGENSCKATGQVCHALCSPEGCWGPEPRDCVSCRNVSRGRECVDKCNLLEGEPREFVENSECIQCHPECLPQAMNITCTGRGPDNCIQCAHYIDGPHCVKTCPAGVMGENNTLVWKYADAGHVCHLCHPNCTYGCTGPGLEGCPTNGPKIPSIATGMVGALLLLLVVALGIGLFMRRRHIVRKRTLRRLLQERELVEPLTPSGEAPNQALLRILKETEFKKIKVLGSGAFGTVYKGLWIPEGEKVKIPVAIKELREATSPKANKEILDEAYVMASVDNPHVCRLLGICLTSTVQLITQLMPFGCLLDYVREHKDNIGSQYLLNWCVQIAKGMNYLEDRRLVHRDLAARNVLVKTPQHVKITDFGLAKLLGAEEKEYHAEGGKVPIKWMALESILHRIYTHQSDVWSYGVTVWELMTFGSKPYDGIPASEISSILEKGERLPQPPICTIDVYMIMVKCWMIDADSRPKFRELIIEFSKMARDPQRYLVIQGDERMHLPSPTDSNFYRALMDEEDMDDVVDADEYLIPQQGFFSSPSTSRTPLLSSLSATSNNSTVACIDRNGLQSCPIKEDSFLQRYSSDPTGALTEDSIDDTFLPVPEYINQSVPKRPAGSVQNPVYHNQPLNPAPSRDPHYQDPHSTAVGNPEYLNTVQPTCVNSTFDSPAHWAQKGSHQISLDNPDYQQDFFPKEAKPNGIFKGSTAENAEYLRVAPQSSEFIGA

By IC50 is commonly meant the midpoint of a concentration-inhibition curve. A higher IC50 goes with weaker potency in that assay. A word on the melting point: it is the temperature, or range, at which the solid turns liquid. Regarding `O=C(O)CCc1c(C=C2C(=O)Nc3ccccc32)[nH]c2c1CCCC2` [IN-001, 3-[2-(2-Oxo-1,2-dihydro-indol-3-ylidenemethyl)-4,5,6,7-tetrahydro-1H-indol-3-yl]-propionic acid], the melting point lay in the range of 263 to 265 °C. In data set [1], this compound displayed an IC50 of 15.9 nM. Moreover, the IC50 in data set [2] stood at 62 nM.

`O=C(O)CCc1c(C=C2C(=O)Nc3ccc(Br)cc32)[nH]c2c1CCCC2` [IN-003, 3-[2-(5-Bromo-2-oxo-1,2-dihydro-indol-3-ylidenemethyl)-4,5,6,7-tetrahydro-1H-indol-3-yl]-propionic acid]: the IC50 turned out to be 76 nM in data set [1] and 29 nM in data set [2].

`Cc1cccc2c1C(=Cc1[nH]c3c(c1CCC(=O)O)CCCC3)C(=O)N2` [IN-004, 3-[2-(4-Methyl-2-oxo-1,2-dihydro-indol-3-ylidenemethyl)-4,5,6,7-tetrahydro-1H-indol-3-yl]-propionic acid]: the values for the half-maximal inhibitory concentration (IC50) in data set [1] and in data set [2] were 2.5 nM and 23 nM, respectively.

Take `Cc1ccc2c(c1)C(=Cc1[nH]c3c(c1CCC(=O)O)CCCC3)C(=O)N2` [IN-005, 3-[2-(5-Methyl-2-oxo-1,2-dihydro-indol-3-ylidenemethyl)-4,5,6,7-tetrahydro-1H-indol-3-yl]-propionic acid]: the values for the IC50 in data set [1] and in data set [2] were 4.4 nM and 63 nM, respectively.

Consider `COc1ccc2c(c1)NC(=O)C2=Cc1[nH]c2c(c1CCC(=O)O)CCCC2` [IN-007, 3-[2-(6-Methoxy-2-oxo-1,2-dihydro-indol-3-ylidenemethyl)-4,5,6,7-tetrahydro-1H-indol-3-yl]-propionic acid], for which the 50% inhibitory concentration (IC50) in data set [1] was 1600 nM; in data set [2], 810 nM.

Regarding `CN(C)C(=O)CCc1c(C=C2C(=O)Nc3ccccc32)[nH]c2c1CCCC2` [IN-008, N,N-Dimethyl-3-[2-(2-oxo-1,2-dihydro-indol-3-ylidenemethyl)-4,5,6,7-tetrahydro-1H-indol-3-yl]-propionamide], the concentration for half-maximal inhibition (IC50) in data set [1] is 2200 nM; in data set [2] it was 500 nM.

In the case of `CN(C)CCCc1c(C=C2C(=O)Nc3ccccc32)[nH]c2c1CCCC2` [IN-009, 3-[3-(3-Dimethylamino-propyl)-4,5,6,7-tetrahydro-1H-indol-2-ylmethylene]-1,3-dihydro-indol-2-one], the values for the concentration for half-maximal inhibition (IC50) in data set [1] and in data set [2] were 1700 nM and 7400 nM, respectively.

Consider `NC(=O)CCc1c(C=C2C(=O)Nc3ccccc32)[nH]c2c1CCCC2` [IN-010, 3-[2-(2-Oxo-1,2-dihydro-indol-3-ylidenemethyl)-4,5,6,7-tetrahydro-1H-indol-3-yl]-propionamide], for which the half-maximal inhibitory concentration (IC50) in data set [1] was determined as 100 nM; in data set [2] it was 130 nM.

Take `O=C1Nc2ccccc2C1=Cc1[nH]c2c(c1CCC(=O)N1CCOCC1)CCCC2` [IN-011, 3-[3-(3-Morpholin-4-yl-3-oxo-propyl)-4,5 6,7-tetrahydro-1H-indol-2-ylmethylene]-1,3-dihydro-indol-2-one]: the IC50 in data set [1] was 9200 nM; in data set [2] it was less than 780 nM.

Take `CNC(=O)CCc1c(C=C2C(=O)Nc3ccccc32)[nH]c2c1CCCC2` [IN-012, N-Methyl-3-[2-(2-oxo-1,2-dihydro-indol-3-ylidenemethyl)-4,5,6,7-tetrahydro-1H-indol-3-yl]-propionamide]: the figures for the 50% inhibitory concentration (IC50) in data set [1] and in data set [2] were 160 nM and less than 780 nM, respectively.

On to `Cc1c[nH]c(C=C2C(=O)Nc3ccccc32)c1CCC(=O)O` [IN-026, 3-[4-Methyl-2-(2-oxo-1,2-dihydro-indol-3-ylidenemethyl)-1H-pyrrol-3-yl]-propionic acid], for which the IC50 in data set [1] is 1100 nM; in data set [3], more than 100000 nM; in data set [2] it was 200 nM.

Take `Cc1c[nH]c(C=C2C(=O)Nc3ccc(Cl)cc32)c1CCC(=O)O` [IN-027, 3-[2-(5-Chloro-2-oxo-1,2-dihydro-indol-3-ylidenemethyl)-4-methyl-1H-pyrrol-3-yl]-propionic acid]: the IC50 in data set [1] was 1400 nM; in data set [3] it was more than 100000 nM; in data set [2], 2900 nM.

In the case of `COc1ccc2c(c1)NC(=O)C2=Cc1[nH]cc(C)c1CCC(=O)O` [IN-028, 3-[2-(6-Methoxy-2-oxo-1,2-dihydro-indol-3-ylidenemethyl)-4-methyl-1H-pyrrol-3-yl]-propionic acid], the half-inhibitory concentration (IC50) was 4800 nM in data set [1], more than 100000 nM in data set [3] and 1500 nM in data set [2].

`Cc1c[nH]c(C=C2C(=O)Nc3cccc(C)c32)c1CCC(=O)O` [IN-029, 3-[2-(4-Methyl-2-oxo-1,2-dihydro-indol-3-ylidenemethyl)-4-methyl-1H-pyrrol-3-yl]-propionic acid]: the IC50 in data set [1] is 350 nM; in data set [3] it was more than 100000 nM; in data set [2] it was 200 nM.

Regarding `Cc1c[nH]c(C=C2C(=O)Nc3cc(Cl)ccc32)c1CCC(=O)O` [IN-030, 3-[2-(6-Chloro-2-oxo-1,2-dihydro-indol-3-ylidenemethyl)-4-methyl-1H-pyrrol-3-yl]-propionic acid], the half-inhibitory concentration (IC50) was 260 nM in data set [1], 98100 nM in data set [3] and 190 nM in data set [2].

For `Cc1c[nH]c(C=C2C(=O)Nc3ccc(Br)cc32)c1CCC(=O)O` [IN-031, 3-[2-(5-Bromo-2-oxo-1,2-dihydro-indol-3-ylidenemethyl)-4-methyl-1H-pyrrol-3-yl]-propionic acid], the IC50 is more than 100000 nM in data set [3] and 350 nM in data set [2].
